Measured values from ChEMBL document CHEMBL3045698, “Structure and synthesis of a potent glutamate receptor antagonist in wasp venom” (Proc Natl Acad Sci U S A, 1988).
Active and inactive are the calls of the source. The rule behind the calls is not given here.

Legend:
[1] = test system: Schistocerca gregaria; assay: Inhibition of quisqualate-sensitive glutamate receptor in Schistocerca gregaria (desert locust) muscle assessed as reduction in neurally-evoked teitch contraction of locust metathoracic retractor unguis muscle at 0.1 Hz to 0.6 Hz stimulation frequency at 25 uM
[2] = test system: Schistocerca gregaria; assay: Inhibition of quisqualate-sensitive glutamate receptor in Schistocerca gregaria (desert locust) muscle assessed as reduction in glutamate-evoked teitch contraction of locust metathoracic retractor unguis muscle at 0.1 Hz to 0.6 Hz stimulation frequency at 10 uM

`CCCC(=O)N[C@@H](Cc1ccc(O)cc1)C(=O)NCCCNCCCCNCCCN` was tested, and the inhibition [1] was “Active”.
In the case of `CCCC(=O)N[C@@H](Cc1ccc(O)cc1)C(=O)NCCCNCCCNCCCCN`, the inhibition [1] is reported as “Active”.
With `CCCC(=O)N[C@@H](Cc1ccc(O)cc1)C(=O)NCCCCNCCCNCCCN` the inhibition [1] was “Active” and the inhibition [2] was greater than 90%.
